Source: patent publication US20020026053A1, “Novel 3-(substituted) -2- indolinones compounds and use thereof as inhibitors of protein kinase activity” (priority 1997, published 2002)

Molecular target: T1, EGFR (Homo sapiens, UniProt P00533)
T1 construct: endogenous in cells; host or cells: A431 cells (lysate, captured with SUMO1 anti-EGFR antibody)
Assay: Biochemical EGFR Assay
Set-up: concentration or dose not given beside the values
Summary of the method: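 EGFR from A431 lysate was captured on anti-EGFR-coated wells and preincubated 30 min with compound (diluted 1:10 in TBS) at room temperature. After ATP/MnCl2 phosphorylation for 5 min, the reaction was stopped with EDTA. Phosphotyrosine was detected by ELISA (anti-phosphotyrosine, peroxidase conjugate, ABTS) at 410 nm.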

T1 sequence (P00533 25-1210): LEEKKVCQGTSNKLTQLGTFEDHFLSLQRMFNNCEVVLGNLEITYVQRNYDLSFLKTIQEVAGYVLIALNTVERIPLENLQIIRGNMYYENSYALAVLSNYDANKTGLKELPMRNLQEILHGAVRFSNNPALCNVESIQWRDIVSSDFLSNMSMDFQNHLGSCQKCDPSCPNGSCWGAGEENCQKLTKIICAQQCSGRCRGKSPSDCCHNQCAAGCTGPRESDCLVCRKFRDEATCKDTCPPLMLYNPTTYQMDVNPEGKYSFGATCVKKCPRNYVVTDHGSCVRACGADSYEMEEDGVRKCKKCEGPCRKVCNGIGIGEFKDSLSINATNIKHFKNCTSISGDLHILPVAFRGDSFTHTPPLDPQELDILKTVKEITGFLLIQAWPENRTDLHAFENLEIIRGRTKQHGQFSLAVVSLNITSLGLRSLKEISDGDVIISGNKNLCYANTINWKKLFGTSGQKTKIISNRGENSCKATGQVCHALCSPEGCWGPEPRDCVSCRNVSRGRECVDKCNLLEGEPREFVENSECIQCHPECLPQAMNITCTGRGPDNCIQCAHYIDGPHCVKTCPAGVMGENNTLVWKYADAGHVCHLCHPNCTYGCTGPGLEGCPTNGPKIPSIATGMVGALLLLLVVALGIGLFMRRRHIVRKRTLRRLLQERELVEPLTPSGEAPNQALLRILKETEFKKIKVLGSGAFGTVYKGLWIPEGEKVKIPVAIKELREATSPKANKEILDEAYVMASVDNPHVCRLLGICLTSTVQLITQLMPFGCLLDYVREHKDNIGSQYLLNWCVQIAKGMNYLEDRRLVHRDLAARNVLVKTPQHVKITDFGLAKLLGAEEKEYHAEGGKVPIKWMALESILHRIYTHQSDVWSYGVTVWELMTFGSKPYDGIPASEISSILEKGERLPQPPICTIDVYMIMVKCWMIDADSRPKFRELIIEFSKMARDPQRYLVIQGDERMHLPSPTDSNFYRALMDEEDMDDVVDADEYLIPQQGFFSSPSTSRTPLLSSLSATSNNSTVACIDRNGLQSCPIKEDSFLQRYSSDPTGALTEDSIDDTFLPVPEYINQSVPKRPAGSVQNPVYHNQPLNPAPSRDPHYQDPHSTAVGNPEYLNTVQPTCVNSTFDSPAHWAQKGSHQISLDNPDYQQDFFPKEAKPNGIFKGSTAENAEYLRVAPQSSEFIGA

Q: For `O=C1Nc2ccc(CCCl)cc2C1=Cc1ccc([N+](=O)[O-])cc1` [10734/G06], which “Biochem EGFR % Inhibition (P.167)” value is on record?
A: The value was 12.5%.

Q: How did the “Biochem EGFR % Inhibition (P.167)” value turn out when `O=C1Nc2ccc(CCCl)cc2C1=Cc1ccc(O)c(Br)c1` [10734/G09] was run?
A: The value was 21.4%.

Q: Which “Biochem EGFR % Inhibition (P.167)” value does the source give for `CCOC(=O)CCc1c(C(=O)OCC)[nH]c(C=C2C(=O)Nc3c(Br)cc(Br)c(C)c32)c1CC(=O)OCC` [10718/H05] here?
A: The value was 0.2%.

Q: `CNS(=O)(=O)c1ccc2c(c1)C(=Cc1cccc(F)c1O)C(=O)N2` [10734/D08] was tested. Which “Biochem EGFR % Inhibition (P.167)” value did it give?
A: Its value is −13.7%.

Q: How did the “Biochem EGFR % Inhibition (P.167)” value turn out when `Cc1c(Br)ccc2c1C(=Cc1ccc(C(C)(C)C)cc1)C(=O)N2` [10734/C10] was run?
A: Its value is 24.4%.

Q: With `Cc1c(Br)ccc2c1C(=Cc1ccc(O)c(Br)c1)C(=O)N2` [10734/C09] as the compound, how does the “Biochem EGFR % Inhibition (P.167)” value read?
A: The value was 36.2%.

Q: With `O=C1Nc2ccc(S(=O)(=O)N3CCOCC3)cc2C1=Cc1ccc(O)c(Br)c1` [10734/F09] as the compound, how does the “Biochem EGFR % Inhibition (P.167)” value read?
A: The value was 3.1%.

Q: Which “Biochem EGFR % Inhibition (P.167)” value does the source give for `COC(=O)c1[nH]c(C)c(C=C2C(=O)Nc3c(Br)cc(Br)c(C)c32)c1C(=O)OC` [10718/H07] here?
A: The value was −12.0%.

Q: With `O=C1Nc2ccc(S(=O)(=O)N3CCOCC3)cc2C1=Cc1cc(Cl)ccc1O` [10734/F04] as the compound, how does the “Biochem EGFR % Inhibition (P.167)” value read?
A: Its value is 3.9%.

Q: For `O=C1Nc2ccc(CCCl)cc2C1=Cc1ccc(Br)s1` [10734/G11], which “Biochem EGFR % Inhibition (P.167)” value is on record?
A: Its value is 4.1%.

Q: With `CC(C)(C)c1ccc(C=C2C(=O)Nc3ccc(I)cc32)cc1` [10734/B10] as the compound, how does the “Biochem EGFR % Inhibition (P.167)” value read?
A: Its value is 60.7%.

Q: With `CCN(CC)c1ccc(C=C2C(=O)Nc3ccc(I)cc32)c(O)c1` [10734/B05] as the compound, how does the “Biochem EGFR % Inhibition (P.167)” value read?
A: Its value is 17.8%.

Q: For `O=C1Nc2c(Br)cc(Br)cc2C1=Cc1ccc([N+](=O)[O-])cc1` [10734/A06], which “Biochem EGFR % Inhibition (P.167)” value is on record?
A: The value was −6.4%.

Q: Which “Biochem EGFR % Inhibition (P.167)” value does the source give for `O=C1Nc2ccc(S(=O)(=O)N3CCOCC3)cc2C1=Cc1ccc(Br)s1` [10734/F11] here?
A: Its value is −15.6%.

Q: With `CC(C)(C)c1ccc(C=C2C(=O)Nc3ccc(S(=O)(=O)Nc4ccc(C(F)(F)F)cc4)cc32)cc1` [10734/E10] as the compound, how does the “Biochem EGFR % Inhibition (P.167)” value read?
A: Its value is −5.0%.

Q: With `O=C1Nc2ccc(CCCl)cc2C1=Cc1cc(Cl)cc(Cl)c1O` [10734/G03] as the compound, how does the “Biochem EGFR % Inhibition (P.167)” value read?
A: Its value is 82.8%.

Q: With `Cc1c(Br)ccc2c1C(=Cc1cc(Cl)ccc1O)C(=O)N2` [10734/C04] as the compound, how does the “Biochem EGFR % Inhibition (P.167)” value read?
A: Its value is 38.1%.

Q: With `CCOc1cccc(C=C2C(=O)Nc3ccc(S(=O)(=O)NC)cc32)c1O` [10734/D02] as the compound, how does the “Biochem EGFR % Inhibition (P.167)” value read?
A: The value was 5.2%.

Q: How did the “Biochem EGFR % Inhibition (P.167)” value turn out when `O=C1Nc2c(Br)cc(Br)cc2C1=Cc1cc(Br)cc(Br)c1O` [10734/A07] was run?
A: Its value is 15.2%.

Q: With `O=C1Nc2ccc(S(=O)(=O)Nc3ccc(C(F)(F)F)cc3)cc2C1=Cc1cc(Cl)ccc1O` [10734/E04] as the compound, how does the “Biochem EGFR % Inhibition (P.167)” value read?
A: Its value is −7.8%.

Q: How did the “Biochem EGFR % Inhibition (P.167)” value turn out when `CNS(=O)(=O)c1ccc2c(c1)C(=Cc1ccc(C(C)(C)C)cc1)C(=O)N2` [10734/D10] was run?
A: The value was −4.4%.
